The values that follow come from patent publication US8217006B2, “Inhibiting GS-FDH to modulate no bioactivity” (Duke University, priority 2001, dated 2012).

Data set [1] concerns impotence. The data set is described as follows: Example XIII: diabetic patient with impotence. Type of data set: in vivo, human. An excerpt:
A diabetic with a history of impotence presents to their urologist. […] Their physician adds topical mycophenolic acid (5% paste) with good results.

Data set [2] addresses T1, mouse GS-FDH (Mus musculus, UniProt P28474).
T1 construct: GSNO-metabolizing activity of RAW 264.7 cells was recovered in a single function following anion exchange on a MonoQ column; endogenous in cells; host or cells: RAW 264.7 mouse macrophages (ATCC); purified by ammonium sulfate precipitation, MonoQ and 5' AMP Sepharose 4B
The data set can be described thus: Kinetic analysis of purified GSNO reductase (GS-FDH) from RAW 264.7 cells. Type of data set: biochemical. The following applies: purified protein.
Description: Cells were homogenized by sonication in a solution containing 20 mM Tris-HCl (pH 8.0), 0.5 mM EDTA, 0.1% NP-40 and 1 mM phenylmethylsulfonyl (PMSF).
Further purification over a 5′ AMP Sepharose column yielded a single band of about 43 kDa in a silver-stained SDS-PAGE gel. […] After dialysis against 20 mM Tris-HCl (pH 8.0), the proteins were fractionated on a MonoQ column with increasing concentrations of NaCl. […] SDS-PAGE and Coomassie blue staining gave the single band of about 43 kDa.
The purified protein was digested by trypsin and the resulting peptides were analyzed by mass spectrometry. Peptide mass database search with GPMAW program identified the protein as mouse GS-FDH(SP-P28474) with high scores, matching 8 fragments (42% coverage) to mouse GS-FDH.

Data set [3] deals with restenosis. The data set is described as follows: Example X: restenosis post-angioplasty, drug-coated stent. Type of data set: in vivo, human. As to conditions: Nir stent coated with drug, 30% per polymer. From the text:
The patient was discharged the following day, and did well.

In data set [4] the test system is Cells from an injured mouse liver. The data set is described as follows: Survival of cells from cytokine-injured mouse liver treated with NO synthase inhibitor. Type of data set: cell-based. The following applies: 1 millimolar. As to the method: (§1) Hepatocytes of wild-type mice and their GS-FDH^−/− littermates were harvested after perfusion of the livers with Liberase (Roche), and purified by repeated differential sedimentation at 50×g, followed by centrifugation over a 30% Percoll solution. […] The cells were then cultured in the presence of recombinant mouse tumor necrosis factor-α (500 units/ml), interferon-gamma (100 units/ml), interleuken-1β (200 units/ml) and lipopolysaccharide (LPS, 10 μg/ml; E. coli 0128:B12; Sigma) for 14 and 40 hours. Nitrosylation levels in hepatocytes were measured as described in Eu, J., et al., Biochemistry 39, 1040-1047 (2000). […] See Liu, L. and Stamler, J. S., Cell Death and Differentiation 6, 937-942 (1999).

The subject of data set [5] is injured mouse liver cells deficient in GS-FDH. The data set can be described thus: Survival of GS-FDH-deficient cells from cytokine-injured mouse liver treated with NO synthase inhibitor. Type of data set: cell-based. As to conditions: same cells but deficient in GS-FDH; 1 millimolar. As for the experimental part: as §1
For data set [6], the system named is human monocyte THP-1 cells. The data set can be described thus: GSNO metabolizing activity of THP-1 cell lysate (Saville assay). Type of data set: biochemical. As to conditions: THP-1 lysate 4 μg/ml, 200 μM GSNO, 37° C., 5 minutes. As to the method: (§2) The cells were from cell lines obtained from the ATCC. Cells were homogenized by sonication in a solution containing 20 mM Tris-HCl (pH 8.0), 0.5 mM EDTA, 0.1% NP-40 and 1 mM phenylmethylsulfonyl fluoride (PMSF). […] After precipitation of the reaction mixtures with trichloroacetic acid (8.3% final concentration), the supernatants were diluted threefold in the buffer and nitrosothiol levels in the reaction mixture were measured by the Saville assay as described in Stamler, J. S., Science 276, 2034 (1997). Data are the mean of two independent experiments.

Data set [7] has as its system human epithelial A549 cells. The data set can be described thus: GSNO metabolizing activity of A549 cell lysate (Saville assay). Type of data set: biochemical. As to conditions: A549 lysate 4 μg/ml, 200 μM GSNO, 37° C., 5 minutes. As to the method:
as §2

Data set [8] concerns human HeLa cells. The data set is described as follows: GSNO metabolizing activity of HeLa cell lysate (Saville assay). Type of data set: biochemical. As to conditions: HeLa lysate 4 μg/ml, 200 μM GSNO, 37° C., 5 minutes. As for the experimental part:
as §2

The test system of data set [9] is cystic fibrosis. The data set is described as follows: Example II: patient with cystic fibrosis. Type of data set: in vivo, human. The following applies: inhaled S-nitrosoglutathione (10 mM in 3 cc) in combination with D-glutathione (3 mM in 10 cc); over the following day. From the text:
A person with cystic fibrosis presents to the Emergency Room with difficulty breathing and a fever.

For data set [10], the system named is wild-type Y190 cells. The data set can be described thus: Growth of wild-type yeast treated with GSNO. Type of data set: cell-based. The following applies: same concentrations as for the mutants.
A short description of data set [11]: GSNO decomposition in reaction buffer, no lysate (Saville assay). Type of data set: biochemical. As to conditions: 200 μM GSNO, 37° C., 5 minutes. As for the experimental part: After precipitation of the reaction mixtures with trichloroacetic acid (8.3% final concentration), the supernatants were diluted threefold in the buffer and nitrosothiol levels in the reaction mixture were measured by the Saville assay as described in Stamler, J. S., Science 276, 2034 (1997). Data are the mean of two independent experiments.

In data set [12] the test system is sfa1 mutant cells. The data set is described as follows: Growth of GS-FDH-deficient yeast under nitrosative or oxidative stress. Type of data set: cell-based. From the text: Genet. 237, 351 (1993) (SFA1/YDL168w) was replaced with dominant selectable cassettes Kan 2 (resistant to G418) or hphMX (resistant to hydromycin) by direct targeting as described in Wach, A., et al., Yeast 10, 1793 (1994). KanMX2 is described in Wach, A. et al., Yeast 10, 1793 (1994). hphMX is described in Goldstein and MeCuskler, Yeast 15, 1541 (1991).

In data set [13] the test system is chronic psoriasis. The data set is described as follows: Example XI: patient with chronic psoriasis. Type of data set: in vivo, human. The following applies: topical paste, 5% with acetylsalicylic acid 2%, 8 hours a day, two weeks. As for the experimental part:
A person with chronic psoriasis presents at the dermatologist. A paste comprised of acetylsalicylic acid, 2%, combined with 5% ribavirin was applied topically for 8 hours a day.

The test system of data set [14] is pulmonary embolism. The data set can be described thus: Example IX: patient with pulmonary embolism. Type of data set: in vivo, human. As to conditions: inhaled, 6 grams in 300 cc, aerosol, 12 hours/day for three days.
Description: A person presents with shortness of breath and hemoptysis. […] Treatment is carried out for 12 hours/day for three days.
For data set [15], the system named is tumors. As to conditions: previous use; cited from earlier work.
For data set [16], the system named is ringworm. The data set is described as follows: Example XVI: ringworm. As to conditions: topical ointment 5%, daily for a week. Type of data set: in vivo, human.
For data set [17], the system named is intractable angina. The data set can be described thus: Example VIII: patient with intractable angina. The following applies: 6 grams injected at 20 milligrams per milliliter, daily for seven days; by six weeks. Type of data set: in vivo, human. As to the method: A person with intractable angina is administered ribavirn as 6 grams diluted to a final volume of 300 cc in sterile water and injected at a final concentration of 20 milligrams per milliliter, given daily for seven days.

Data set [18] deals with atherosclerosis. The following applies: 600 mg TID for a week.
Data set [19] has as its system wheezing. As to conditions: intravenous infusion 50 mg/kg Q.6 hours; person.
Data set [20] concerns angina. The data set is described as follows: Example XXVII: angina treated with nitroglycerine and GS-FDH inhibitor. Type of data set: in vivo, human. As to conditions: 600 mg TIE, concomitantly with nitroglycerine.
The subject of data set [21] is pinworm. The following applies: 1 gram daily for three days.
For data set [22], the system named is swollen abdomen and elevated LSTs. The following applies: infusion 200 milligrams per kilogram every 6 hours for two weeks.
Data set [23] relates to unstable angina. As to conditions: intravenous infusion 100 mg per kg Q6 hours; on betablockers and nitrates. From the text: A person status post CABG×2 presents with unstable angina.
Data set [24] has as its system benign prostatic hypertrophy. The following applies: 600 mg three times a day; over three months.
Data set [25] has as its system severe heart failure. As to conditions: infusion 1 gram TED for 10 days. An excerpt:
A person with acute viral myocarditis develops severe heart failure. […] They are placed on the transplant list.

The test system of data set [26] is viral pneumonia. As to conditions: inhaled, 3 mM/3 cc normal saline four times a day.
Excerpt: A person status post lung transplant is admitted to the hospital with viral pneumonia.
Data set [27] relates to squamous cell cancer. As to conditions: intravenously 200 milligrams per kilogram four times a day; stage 3B before.
Data set [28] deals with 90% lesion of the left anterior descending coronary artery. The following applies: 600 mg P.O. three times a day for a month. From the text: A person has a stent placed for 90% lesion of the left anterior descending coronary artery.
Data set [29] has as its system Hodgkins disease. The following applies: 1 gram three times a day for a month. An excerpt:
A person has a biopsy done on an axillary node which establishes the diagnosis of Hodgkins disease.

Data set [30] concerns blood pressure. The following applies: 600 milligrams BID; three weeks later; 160/90 before. From the text:
A person presents to their primary care physician.

The test system of data set [31] is ARDS. The following applies: inhaled 10 mM in 3 cc normal saline; from 60 mm Hg on 100% oxygen; over 1 hour. From the text:
A person develops ARDS as a complication of urosepsis. They are intubated and transferred to the Intensive Care Unit.

In data set [32] the test system is malignant hypertension. The data set can be described thus: Example XXVIII: heart failure and malignant hypertension. Type of data set: in vivo, human. An excerpt: A person presents with heart failure and malignant hypertension.
The test system of data set [33] is liver function. As to conditions: infusion 200 milligrams per kilogram every 6 hours; over the following week. From the text:
A child presents to the Emergency Room having ingested a toxic dose of Tylenol. […] This is an example of treating a patient for a disease where there is risk of apoptosis occurring.

T1 sequence (P28474 whole entry): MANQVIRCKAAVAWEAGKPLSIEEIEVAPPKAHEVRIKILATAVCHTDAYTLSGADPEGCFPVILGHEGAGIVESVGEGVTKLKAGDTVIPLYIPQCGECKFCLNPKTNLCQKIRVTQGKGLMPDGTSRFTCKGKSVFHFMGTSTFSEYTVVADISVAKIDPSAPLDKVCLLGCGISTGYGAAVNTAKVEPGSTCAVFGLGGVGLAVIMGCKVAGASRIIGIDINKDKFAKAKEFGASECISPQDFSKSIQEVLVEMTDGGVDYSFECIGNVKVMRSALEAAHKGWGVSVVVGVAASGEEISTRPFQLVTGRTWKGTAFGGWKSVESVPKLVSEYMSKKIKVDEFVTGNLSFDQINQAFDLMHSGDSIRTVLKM

For `CCCc1nn(C)c2c(=O)[nH]c(-c3cc(S(=O)(=O)N4CCN(C)CC4)ccc3OCC)nc12` [Viagra], in data set [1] (Viagra alone), the impotence entry is given as “no improvement”.

On to `N[C@@H](CCC(=O)N[C@@H](CSCO)C(=O)NCC(=O)O)C(=O)O` [S-hydroxymethylglutathione], for which the “specific activity for oxidation, as share of the GSNO reducing activity” value in data set [2] is listed as “about 6%”.

`COc1c(C)c2c(c(O)c1C/C=C(\C)CCC(=O)O)C(=O)OC2` [mycophenolic acid]: in [3], the “outcome of stent deployment” value is reported as “successful results”. In addition, in [1] (topical 5% paste added to Viagra), the impotence result was “good results”.

For the compound `CNC(=N)NCCC[C@H](N)C(=O)O` [N^G-methyl-L-arginine], the “nitric oxide synthase activity left” value in data set [4] stood at 20%. Moreover, the results for the cell death entry in data set [4] (liver injured by cytokine administration) and in data set [5] were “found to die” and “died to a lesser extent”, respectively.

For the compound `N[C@@H](CCC(=O)N[C@@H](CSN=O)C(=O)NCC(=O)O)C(=O)O` [GSNO, S-nitrosoglutathione], the GSNO metabolizing activity came out at 90.8% in [6] (+NADH); 22.6% in data set [6] (+NADPH + GSH + ASA); 18.8% in data set [6] (Buffer only); 72.3% in data set [7] (+NADH); 43.9% in [7] (+NADPH + GSH + ASA); 14.7% in [7] (Buffer only). The GSNO metabolizing activity in data set [8] (+NADH) is 84.2%; in [8] (+NADPH + GSH + ASA), 35.4%; in data set [8] (Buffer only) it was 29.9%; in data set [11] (+NADH), 0.0%; in data set [11] (+NADPH + GSH + ASA), 0.7%; in data set [11] (Buffer only) it was 6.2%. Besides, the “symptoms (difficulty breathing, fever)” value in data set [9] is on record as “symptoms resolve”. The Growth of cells entry is “little effect” in data set [10]; “markedly inhibited” in [12] (sfa1 mutant cells (G418^r and hygromicin^r clones)).

Regarding `OO` [Compound H2O2, H2O2], in [12] (sfa1 mutant cells), the “sensitivity to the toxic effects, mutant versus wild-type Y190 cells” value is on record as “no more sensitive”.

Take `NC(=O)c1ncn([C@@H]2O[C@H](CO)[C@@H](O)[C@H]2O)n1` [ribavirin]: in data set [13], the psoriatic lesion entry is listed as “psoriatic lesion had resolved”. Further, the “symptoms (shortness of breath, hemoptysis)” value in data set [14] is given as “improvement in symptoms”. Also, in data set [15], the “activity as antitumor agent” value was “inactive”. In addition, the skin lesion entry in data set [16] is “skin lesion resolve”. In data set [17], the angina result was “angina had improved”.

Turning to `NC(=O)c1coc([C@@H]2O[C@H](CO)[C@@H](O)[C@H]2O)c1` [furanfurin, 5-β-D-ribofuranosylfuran-3-carboxamide], the “activity as antitumor agent” value in [15] is “inactive”.

For the compound `N[C@H](CCC(=O)N[C@H](CS)C(=O)NCC(=O)O)C(=O)O` [D-glutathione], the response to acetylcholine result in data set [18] is “improved response to acetylcholine”. The breathing entry in [19] is recorded as “breathing improves”. In addition, the “symptoms (chest pain)” value in data set [20] was “total relief of symptoms”; in data set [23] it was “relief of their symptoms”. Besides, in data set [21], the signs and symptoms entry was “signs and symptom resolve”. Further, in [22], the “swelling and LSTs” value was “swelling and elevated LSTs are reduced”. Besides, in [24], the “symptoms (urinary frequency and hesitancy)” value is listed as “symptoms gradually resolve”. The clinical course entry in [25] was “stabilized their deteriorating course”. For the same compound, in data set [26], the “symptoms of cough and shortness of breath” value was “resolution of symptoms of cough and shortness of breath”. The “tumor stage on restaging” value in data set [27] was determined as 3A. Moreover, the “course after stent placement” value in [28] is given as “does well”. Further, the adenopathy result in data set [29] is “resolution of adenopathy”. In [30], the blood pressure is given as 140/80. In addition, the PO2 in data set [31] was 80 mm/Hg. Further, the “symptoms (difficulty breathing, fever)” value in [9] was “symptoms resolve”. Besides, the “Blood pressure, systolic” value in data set [32] (600 mg TID coadministered with nitroprusside, from 200) is given as 160. For the same compound, in data set [33], the liver function entry is on record as “gradual normalization of liver function”.

On to nitroprusside, for which, in data set [32] (nitroprusside alone, 1.0 μg/kg/min IV infusion for 10 minutes, from 240), the “Blood pressure, systolic” value was 200.
